Measurements from ChEMBL document CHEMBL3137386, “DNDi T. cruzi fenarimol series dataset from which preclinical candidate EPL-BS1246 was identified (see also related datasets CHEMBL2448688 and CHEMBL3137440)”.
Values after ≈ are worked out from the molar mass of the structure shown. Values joined by “and” are separate entries in the source; they are usually repeats but may differ in a detail not shown here. Equal entries are not always repeated.

Columns and labels:
[1] = system: Trypanosoma brucei rhodesiense; assay: DNDI: HAT in vitro; type: functional, organism-based; conditions: ATCC 30027
[2] = DNDI: Metabolism; type: ADME, Microsome; conditions: human, microsomes; for hepatic extraction ratio: read-out: EH
[3] = DNDI: Lipophilicity (gLogD) at pH 3; type: physicochemical; conditions: buffer
[4] = DNDI: Solubility in phosphate buffer at pH 6.5 determined by nephelometry; type: physicochemical
[5] = DNDI: Lipophilicity (gLogD) at pH 7.4; type: physicochemical; conditions: buffer
[6] = system: Trypanosoma cruzi; assay: (§1) DNDI: Chagas in vitro; type: functional, Tulahuen C4 (LacZ)
[7] = (§2) DNDI: Cytotoxicity against L-6 rat myoblasts from skeletal muscle; type: toxicity, cell-based, Muscle tissue, L6; conditions: rat, L6 rat skeletal muscle myoblasts
[8] = system: Trypanosoma cruzi; assay: as §1; type: functional, organism-based, Tulahuen C4 (LacZ)
[9] = biological target: T1, Cytochrome P450 3A4 (Homo sapiens, UniProt P08684); assay: (§3) DNDI: CYP Inhibition; type: ADME
[10] = DNDI: Solubility in 0.01M HCl at pH 2 determined by nephelometry; type: physicochemical; conditions: for solubility kinetic: 0.01 M HCl
[11] = system: L6; assay: as §2; type: toxicity, cell-based, Muscle tissue; conditions: l6
[12] = biological target: T1, Cytochrome P450 3A4; assay: as §3; type: ADME; remark: listed apart in the source
[13] = Trypanosoma cruzi, Tulahuen C4 (LacZ)

T1 sequence (P08684 whole entry): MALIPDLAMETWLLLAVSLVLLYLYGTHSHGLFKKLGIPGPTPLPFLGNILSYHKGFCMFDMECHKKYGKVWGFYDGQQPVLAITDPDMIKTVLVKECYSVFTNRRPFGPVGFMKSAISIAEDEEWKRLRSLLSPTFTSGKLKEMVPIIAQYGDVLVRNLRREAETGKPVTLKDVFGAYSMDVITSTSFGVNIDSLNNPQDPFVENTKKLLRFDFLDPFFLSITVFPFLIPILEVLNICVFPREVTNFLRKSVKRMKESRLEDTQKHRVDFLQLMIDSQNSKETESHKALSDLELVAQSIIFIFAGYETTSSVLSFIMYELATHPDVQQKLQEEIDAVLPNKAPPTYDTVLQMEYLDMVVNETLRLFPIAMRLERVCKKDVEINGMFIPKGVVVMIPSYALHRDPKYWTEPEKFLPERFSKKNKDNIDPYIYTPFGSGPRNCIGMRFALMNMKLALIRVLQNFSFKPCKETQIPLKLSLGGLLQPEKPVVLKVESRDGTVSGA

Compound	IC50 [1] [µM]	half-life [2] [min]	microsomal CLint [2] [µL/min/mg]	hepatic extraction ratio [2]	chromatographic logD [3]	solubility kinetic [4] [µg/mL]	chromatographic logD [5]	IC90 [6, 13] [µM]	IC50 [8, 13] [µM]	IC50 [9] [µM]	solubility kinetic [10] [µg/mL]	EH [2]	t (1 / 2) [2]	IC90 [6]	IC50 [8]	IC50 [12] [µM]	Kinetic ([10]; buffer) [µg/mL]	IC50 [7] [µM]	Clint [2]	IC50 [11] [µM]
O=C(C(c1ccc(Cl)cc1)c1cncnc1)N1CCN(c2ccc(C(F)(F)F)cc2)CC1 (stereo unspecified)	> 10	30	59	0.77	4.2	3.1 (≈ 6.73 µM)	4.2	> 0.1	0.118	20	3.1 (≈ 6.73 µM)							51.3		
O=C(C(c1ccc(Cl)cc1)c1cccnc1)N1CCN(Cc2cccc(C(F)(F)F)c2)CC1 (stereo unspecified)	> 10							> 0.1	0.0149											
O=C(C(c1ccc(Cl)cc1)c1cccnc1)N1CCN(c2ccc(C(F)(F)F)cn2)CC1 (stereo unspecified)	> 10	41	42	0.7	3.8					> 20	> 100	0.61 and 0.63	63 min and 57 min	> 0.1 µM and 0.401 µM		6.6	25	57	28 µL/min/mg and 30 µL/min/mg	59.3
O=C(C(c1ccc(Cl)cc1)c1cncnc1)N1CCN(c2ccc(C(F)(F)F)cn2)CC1 (stereo unspecified)	> 10	23	76	0.81	3.9	6.3 (≈ 13.6 µM)	3.9	> 0.1	0.161	18	50 (≈ 108 µM)							52.5		
O=C(C(c1ccc(Cl)cc1)c1cccnc1)N1CCN(Cc2ccccc2C(F)(F)F)CC1 (stereo unspecified)	> 10	4	460	0.96				> 0.1	> 0.1	15								54.2		

Second part, led by results:

IC50 [1] [µM]	half-life [2] [min]	microsomal CLint [2] [µL/min/mg]	hepatic extraction ratio [2]	chromatographic logD [3]	solubility kinetic [4] [µg/mL]	chromatographic logD [5]	IC90 [6, 13] [µM]	IC50 [8, 13] [µM]	IC50 [9] [µM]	solubility kinetic [10] [µg/mL]	EH [2]	t (1 / 2) [2]	IC90 [6]	IC50 [8]	IC50 [12] [µM]	Kinetic ([10]; buffer) [µg/mL]	Compound	IC50 [7] [µM]	Clint [2]	IC50 [11] [µM]
> 10	50	35	0.66	3.5					> 20	> 100	0.68 and 0.7	41 min and 45 min	0.027 µM and 0.0715 µM and > 0.1 µM	0.01 µM and 0.012 µM and 0.0675 µM			N#Cc1ccc(C(C(=O)N2CCN(c3ccc(C(F)(F)F)cc3)CC2)c2cccnc2)cc1 (stereo unspecified)	73.8	42 µL/min/mg and 38 µL/min/mg	54.7
> 10							> 0.091	0.066									CC(C)(C)OC(=O)N1CCN(C(=O)C(c2ccc(C#N)cc2)c2cccnc2)CC1 (stereo unspecified)	> 100		
> 10	50		0.79	2.6	6.3 (≈ 13.4 µM)	2.6	> 0.1	0.0783	> 20	25 (≈ 53.1 µM)	0.69 and 0.66	25 min and 43 min		0.0635 µM and > 0.1 µM			CS(=O)(=O)c1ccc(N2CCN(C(=O)C(c3ccc(Cl)cc3)c3cncnc3)CC2)cc1 (stereo unspecified)	> 100	34 µL/min/mg and 69 µL/min/mg and 40 µL/min/mg	
> 10	60	29	0.62	3.1					> 20	> 100	0.56 and 0.54	83 min and 77 min	0.0565 µM and 0.0465 µM and > 0.1 µM	0.023 µM and 0.012 µM and > 0.1 µM			N#Cc1ccc(C(C(=O)N2CCN(c3ccc(C(F)(F)F)cn3)CC2)c2cccnc2)cc1 (stereo unspecified)	> 100	21 µL/min/mg and 23 µL/min/mg	78.7
> 10			0.82	2.3		2.9			19	25 (≈ 53.2 µM)	0.75 and 0.68	21 min and 33 min and 46 min	0.214 µM and > 0.1 µM		7.1		CS(=O)(=O)c1ccc(N2CCN(C(=O)C(c3ccc(Cl)cc3)c3cccnc3)CC2)cc1 (stereo unspecified)	> 100	84 µL/min/mg and 53 µL/min/mg and 38 µL/min/mg	61.5
> 10			0.46	1.8		2.3			> 20	> 100	0.36 and < 0.28	113 min and 169 min and > 250 min	> 0.1 µM and 0.0291 µM				CS(=O)(=O)c1ccc(N2CCN(C(=O)C(c3ccc(C#N)cc3)c3cccnc3)CC2)cc1 (stereo unspecified)	> 100	15 µL/min/mg and 10 µL/min/mg and < 7 µL/min/mg	
